{
  "source": "paper PMC5789092",
  "about": "(Scientific Reports, 2018)",
  "key": {"cancer cells": {"system": "cancer cells", "parameters": "method as in PMID 24763364, PMID 27262408", "conditions": "ref [19],[33]; cited from earlier work"}, "[1]": {"system": "CHO (Chinese hamster ovary)", "assay": "SRB cytotoxicity assay, CHO normal cells", "assay_type": "cell-based", "conditions": "Cricetulus griseus, 72 h, normal cell line", "excerpt": "(§1) All the synthesized derivatives of 1 and 2 were screened for their anticancer activities against four human cancer cell lines (HeLa, PC-3, HEp-2 and HepG2) and two normal cell lines (CHO and HUVEC) using the sulforhodamine B (SRB) assay.\n(§2) PC-3 (human prostate cancer), HepG2 (human liver cancer) and CHO (Chinese hamster ovary) cell lines were obtained from Shanghai Institute of Biochemistry and Cell Biology, Chinese Academy of Sciences. HeLa (human cervix cancer), HUVEC (human umbilical vein endothelial cells) and HEp-2 (human laryngeal cancer) cell lines were granted by Prof. Lei of college of life sciences, Northwest A&F University. The six cell lines were grown in RPMI-1640 (Gibco) containing 10% (v/v) thermally inactivated fetal bovine serum (FBS), penicillin (100 KU/L) and streptomycin (100 KU/L) at 37 °C in a 5% CO2 humidified incubator.\n(§3) In vitro cytotoxicity was assessed by using the SRB colorimetric assay refer to previous methods[19],[42]."}, "[2]": {"system": "PC-3 (human prostate cancer)", "assay": "SRB cytotoxicity assay, PC-3", "assay_type": "cell-based", "conditions": "72 h, mean ± SD, read-out: IC50 PC-3"}, "[3]": {"system": "HEp-2 (human larynx epidermal cancer)", "assay": "SRB cytotoxicity assay, HEp-2", "assay_type": "cell-based", "conditions": "72 h, mean ± SD", "excerpt": "as §1, §2, §3"}, "[4]": {"system": "HeLa (human cervix cancer)", "assay": "SRB cytotoxicity assay, HeLa", "assay_type": "cell-based", "conditions": "72 h, mean ± SD"}, "PC-3 cells [5]": {"system": "PC-3 cells", "assay": "Cell cycle analysis (PI staining, flow cytometry)", "assay_type": "cell-based, human", "conditions": "PC-3, 48 h", "experimental": "The cultured cells were treated with these compounds at the indicated concentrations for 48 h, then harvested, and analyzed by flow cytometry. […] Each experiment was performed in triplicate.\nThe cell cycle arrest on PC-3 and HepG2 cells was detected with PI staining assay (Sigma) as described previously[19]. After treatment with samples at the set concentrations for 48 h, cells were centrifuged and fixed in 70% ethanol at 4 °C refrigerator 12 h and then resuspended in PBS (100 μL RNase A and 400 μL PI). Cellular DNA content was measured using a FACSCalibur flow cytometer with Modfit LT 3.0 software. Twenty thousand cells were collected per sample. Mean values are presented from three independent experiments."}, "[6]": {"system": "canonical p50/p65 NF-κB signaling in PC-3 cells", "assay": "NF-κB luciferase reporter assay, TNF-α-induced", "assay_type": "cell-based, human", "conditions": "10 μM, 8 h, TNF-α 50 ng/mL", "excerpt": "The canonical NF-κB signaling pathway is a target for developing therapeutics for multiple human diseases, including cancer and chronic inflammatory diseases[46],[47]. Many STLs are known modulators of NF-κB signaling[7],[48]. In particular, two famous STLs parthenolide and helenalin have been certified to covalently target Cys38 of NF-κB p65 through hetero-Michael addition between exocyclic methylene butyrolactones and biological thiol of Cys38[49],[50]. […] To test the inhibition of active compound in NF-κB signaling, 1i and parthenolide (P, positive control) were screened for inhibitory activity toward canonical p50/p65 NF-κB signaling with a cellular luciferase assay (Fig. 12)[51]. […] The observation that 1i and P are comparably potent in this assay hints at the possibility that 1i may also have similar properties like 1β-hydroxy alantolactone and parthenolide in cells.\nFigure 12 NF-κB-luciferase inhibition assay in PC-3 cells. PC-3 cells with a stably transfected NF-κB luciferase reporter were stimulated with TNF-α (50 ng/mL) (except for noninduced control, Non-Ind) and different dose of parthenolide (P) and 1i for 8 h. Normalized luminescence was plotted as NF-κB luciferase activity compared to control (%).\nPC-3 cells (8000 cells/well) were placed in a 96-well plate and the cells were then transfected with pNF-κB-Luc expression plasmid reference to the method."}, "[7]": {"system": "HUVEC (human umbilical vein endothelial cell)", "assay": "SRB cytotoxicity assay, HUVEC normal cells", "assay_type": "cell-based", "conditions": "Homo sapiens, HUVEC; 72 h, SRB, normal cell line"}, "[8]": {"system": "HepG2 (human liver cancer)", "assay": "SRB cytotoxicity assay, HepG2", "assay_type": "cell-based", "conditions": "72 h, mean ± SD, read-out: IC50 HepG2"}, "PC-3 cells [9]": {"system": "PC-3 cells", "assay": "Hoechst 33258 nuclear chromatin condensation, PC-3", "assay_type": "cell-based, human", "conditions": "PC-3, 72 h; VP-16 0.5 and 1 μM; 1i 1, 2 and 4 μM", "protocol": "Figure 10 Induction of apoptosis by active compound 1i and VP-16 at the indicated concentrations on PC-3 cells. (a) 72 h after the treatment of these compounds at the indicated concentrations, cells were fixed, washed with PBS, stained with Hoechst 33258, and analyzed for morphological characteristics associated with apoptosis by fluorescence microscopic analysis (×20). (b) Compound 1i triggered changes of pro-caspase 3 and PARP by Western blotting analysis. Cells were lysed after 72 h treatment with 1i at the concentration (1, 2 and 4 μM). The lysates were resolved on a 10% SDS-PAGE, transferred on to a nitrocellulose membrane and probed for cleaved caspase 3 and PARP. β-actin was used as a loading control.\nCondensation of nuclear chromatin is usually the late apoptotic event and is detected by staining Hoechst 33258[43]. PC-3 cells containing 2.0 × 10^5 cells/well were cultured on coverslips, and kept in six-well plates for 12 h. After 72 h treatment with 1i and VP-16, Hoechst 33258 staining was carried out according to the kit’s procedure (Beyotime Institute Biotechnology, China). The cells were viewed under a fluorescence microscopy (Olympus BX53 + DP72) with a ×20 objective lens."}, "[10]": {"system": "CHO (Chinese hamster ovary)", "conditions": "footnote c; ref Dong et al.[19]; cited from earlier work"}, "[11]": {"system": "HEp-2 (human larynx epidermal cancer)", "conditions": "footnote c; ref Dong et al.[19]; cited from earlier work"}, "[12]": {"system": "HeLa (human cervix cancer)", "parameters": "method as in Dong et al.[19]", "conditions": "footnote c; ref Dong et al.[19]; cited from earlier work"}},
  "note": "Where two headings read alike, the source gives them in different places.",
  "data": [
    {"smiles": "C=C1C(=O)OC2CC(C)=C(C(C)CCCOC(C)=O)C(OC(=O)CCCCCCCCCCC)C12", "note": "(stereo not shown) [ABL-L, 1-O-acetyl-6-O-lauroylbritannilactone]", "values": [
      {"measurement": "fold stronger suppression against cancer cells compared with ABL", "setting": "cancer cells", "result": "4–10 fold"}
    ]},
    {"smiles": "C=C1C(=O)O[C@H]2[C@H]1CC/C(C)=C/CC[C@@]1(C)O[C@@H]21", "note": "[P, parthenolide, reference compound]", "values": [
      {"measurement": "IC50", "setting": "[1]", "result": "5.3 ± 0.7", "unit": "µM"},
      {"measurement": "IC50", "setting": "[2]", "result": "3.4 ± 0.6", "unit": "µM"},
      {"measurement": "IC50", "setting": "[3]", "result": "6.8 ± 0.3", "unit": "µM"},
      {"measurement": "IC50", "setting": "[4]", "result": "7.6 ± 0.6", "unit": "µM"},
      {"measurement": "%G0/G1", "setting": "PC-3 cells [5]; 4.0 μM", "result": 46.2, "unit": "%"},
      {"measurement": "%G2/M", "setting": "PC-3 cells [5]; 4.0 μM", "result": 18.2, "unit": "%"},
      {"measurement": "%S", "setting": "PC-3 cells [5]; 4.0 μM", "result": 35.6, "unit": "%"},
      {"measurement": "NF-κB luciferase activity compared to control", "setting": "[6]", "result": 52.1, "unit": "%"}
    ]},
    {"smiles": "COc1cc([C@@H]2c3cc4c(cc3[C@@H](O[C@@H]3O[C@@H]5CO[C@@H](C)O[C@H]5[C@H](O)[C@H]3O)[C@H]3COC(=O)[C@H]23)OCO4)cc(OC)c1O", "note": "[VP-16, etoposide, reference compound]", "values": [
      {"measurement": "IC50", "setting": "[7]", "result": "1.9 ± 0.2", "unit": "µM"},
      {"measurement": "IC50", "setting": "[2]", "result": "0.6 ± 0.1", "unit": "µM"},
      {"measurement": "IC50", "setting": "[8]", "result": "7.6 ± 0.8", "unit": "µM"},
      {"measurement": "nuclear morphology (Hoechst 33258), apoptosis", "setting": "PC-3 cells [9]", "result": "fragmentation and condensation of chromatin"},
      {"measurement": "IC50", "setting": "[10]", "result": "2.6 ± 0.2", "unit": "µM"},
      {"measurement": "IC50", "setting": "[11]", "result": "4.8 ± 0.5", "unit": "µM"},
      {"measurement": "%G0/G1", "setting": "PC-3 cells [5]; 1.0 μM", "result": 28.1, "unit": "%"},
      {"measurement": "%G2/M", "setting": "PC-3 cells [5]; 1.0 μM", "result": 42.4, "unit": "%"},
      {"measurement": "%S", "setting": "PC-3 cells [5]; 1.0 μM", "result": 29.5, "unit": "%"},
      {"measurement": "IC50", "setting": "[12]", "result": "3 ± 0.3", "unit": "µM"}
    ]}
  ]
}
